This note sets out measurements from patent publication US5605906A, “Cannabinoid receptor agonists” (Merck Frosst Canada, Inc., priority 1995, dated 1997).

Several values for one entry are separate records, joined by “and”; a condition that tells them apart may be missing. Equal entries are not always repeated.

In assay [1] the target is T1, human central cannabinoid (CB 1) receptor (Homo sapiens, UniProt P21554).
T1 construct: expressed in transfected cells; host or cells: HEK293(EBNA)
Description: CB1 receptor binding assay ([3H]CP55940, HEK293(EBNA) membranes). To be noted: [3H]CP55940 0.6 nM, pH 7.4, 30 °C, 60 min. How it is done:
The compound of Formula I can be tested using the following assays to determine their affinity for binding to the cannabinoid receptors.
Stable cell lines were constructed expressing either the human peripheral cannabinoid (CB2) receptor or the human central cannabinoid (CB 1) receptor as described previously (Gerard. et al., Molecular cloning of a human cannabinoid receptor which is also expressed in testis. Biochem. J. (279)129-134, 1991.). […]
CB2 receptor binding assays were performed in 0.2 ml of 10 mM HEPES/KOH (pH 7.4) containing 1 mM EDTA, 0.3 mg/ml human serum albumin (HSA), 1 mM MgCl2, and 2.4 nM [^3 H]Win 55212-2 (Dupont-NEN Canada, Mississauga, ON). […] The residual [^3 H]Win 55212-2 or [^3 H]CP55940(-) bound to the filters was determined by liquid scintillation counting following a 6h equilibration in 5 ml Biofluor O) (Dupont-NEN Canada, Mississauga, ON) scintillation cocktail (efficiency for tritium was approximately 55%). […]

The target in assay [2] is T2, human peripheral cannabinoid (CB2) receptor (Homo sapiens, UniProt P34972).
T2 construct: expressed in transfected cells; host or cells: CHO-K1
T2 sequence (P34972 whole entry): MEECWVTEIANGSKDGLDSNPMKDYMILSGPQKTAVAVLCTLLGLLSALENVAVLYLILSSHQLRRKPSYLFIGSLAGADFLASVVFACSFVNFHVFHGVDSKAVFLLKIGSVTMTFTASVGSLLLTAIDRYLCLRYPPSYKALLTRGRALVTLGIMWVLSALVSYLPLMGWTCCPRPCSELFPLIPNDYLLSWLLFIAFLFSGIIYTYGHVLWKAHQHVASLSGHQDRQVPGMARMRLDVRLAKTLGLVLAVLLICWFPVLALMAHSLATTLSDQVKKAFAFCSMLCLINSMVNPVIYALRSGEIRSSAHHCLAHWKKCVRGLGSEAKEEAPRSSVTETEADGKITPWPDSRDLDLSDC
Description: CB2 receptor binding assay ([3H]Win 55212-2, CHO-K1 membranes). The conditions noted are these: [3H]Win 55212-2 2.4 nM, pH 7.4, 30 °C, 40 min.

Assay [3] deals with T2, human peripheral cannabinoid (CB2) receptor. Kind of assay: CB2 functional assay: cAMP assay in CHO-K1 cells expressing the CB2 receptor. To be noted: forskolin, 37 °C, 15 min. It counts as cell-based. Background: Cyclic AMP is a second messenger, typically raised through Gs and lowered through Gi signalling.
Description: Stable cell lines were constructed expressing either the human peripheral cannabinoid (CB2) receptor or the human central cannabinoid (CB 1) receptor as described previously (Gerard. et al., Molecular cloning of a human cannabinoid receptor which is also expressed in testis. Biochem. J. (279)129-134, 1991.). Membranes were prepared from CHO-K1 cells stably expressing the CB2 receptor and HEK293(EBNA) cells stably expressing the CB 1 receptor by differential centrifugation (1000×g for 10 min, then 100,000×g for 30 min, both at 4° C.) following lysis of the cells by nitrogen cavitation at 800 psi for 15 min on ice, as previously described (Frey, E.A., et al., Characterization of the leukotriene D4 receptor in dimethylsulphoxide-dufferentiated U937 cells: comparison with the leukotriene D4 receptor in human-lung and guinea-pig lung. Eur. J. Pharma. (244) 239-250, 1993.). […]
CB2--CHO-K1 cells were seeded at 10^6 cells per 175 cm^2 T-flask in MEM alpha growth medium (MEM alpha medium containing 25 mM HEPES/KOH (pH 7.4), 10% heat inactivated fetal bovine serum, 20 units/ml penicillin G, 20 mg/ml streptomycin sulfate and 500 mg/ml G418) (GIBCO-BRL Canada, Burlington, ON). […] Cell viability was always >96% as determined by trypan blue exclusion. […]

T1 sequence (P21554 whole entry): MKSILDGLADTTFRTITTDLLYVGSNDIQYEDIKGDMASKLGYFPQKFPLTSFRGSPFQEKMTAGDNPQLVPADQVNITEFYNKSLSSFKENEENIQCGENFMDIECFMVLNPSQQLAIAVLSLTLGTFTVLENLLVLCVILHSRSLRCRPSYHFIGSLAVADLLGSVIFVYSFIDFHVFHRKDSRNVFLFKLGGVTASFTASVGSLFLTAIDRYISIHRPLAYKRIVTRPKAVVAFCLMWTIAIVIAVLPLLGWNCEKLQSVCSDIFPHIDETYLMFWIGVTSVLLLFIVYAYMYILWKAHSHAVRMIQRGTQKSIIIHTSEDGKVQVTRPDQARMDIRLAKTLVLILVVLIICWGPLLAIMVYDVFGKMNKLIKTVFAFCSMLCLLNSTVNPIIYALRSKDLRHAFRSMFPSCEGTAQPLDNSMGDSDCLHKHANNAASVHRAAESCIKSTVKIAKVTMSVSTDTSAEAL

As usually defined, the IC50 is the concentration that inhibits the measured activity by half. Read a high IC50 as weaker potency in that assay. Consider `CCCCCCC(C)(C)c1cc(O)c2c(c1)OC(C)(C)[C@@H]1CC=C(CO)C[C@@H]21` [HU-210, reference compound], for which, in assay [1], the 50% inhibitory concentration (IC50) stood at 2.5 ± 0.2 nM.
By Ki is commonly meant the equilibrium dissociation constant of an inhibitor or competing ligand from its target. Low readings indicate a stronger hold on the target, high ones a looser hold on the target. The EC50 is the concentration giving half of the maximal effect. For the compound `COc1ccc2c(c1)N(C)C(C)(C)[C@@H]1CC[C@@H](C)C[C@@H]21` [Example 1, (6aR,9R,10aR)-3-Methoxy-5,6,6,9-tetramethyl-5,6,6a,7,8,9,10,10a-octahydro-phenanthridine], in assay [1], the IC50 was 22300 nM and 27400 nM. In assay [2], the Ki is 73 nM and 55 nM. Moreover, the EC50 in assay [3] was 68 nM and 149 nM.
